{
  "source": "patent US20150182456A1",
  "about": "“HYDROGEL VACCINE FORMULATIONS” (Sigmoid Pharma Limited, priority 2012, published 2015)",
  "system": "Female C57/bl6 Mice",
  "assay": "V. Cholerae Experiment 1: immune response in fecal pellets",
  "type": "in vivo",
  "conditions": "oral, 2.5×10^8 bacteria, 10 μg αGalCer, 3 rounds, ELISA",
  "data": [
    {"smiles": "CCCCCCCCCCCCCCCCCCCCCCCCCC(=O)N[C@@H](CO[C@H]1O[C@H](CO)[C@H](O)[C@H](O)[C@H]1O)[C@H](O)[C@H](O)CCCCCCCCCCCCCC", "note": "[αGalCer, α-galactosylceramide]", "values": [
      {"measurement": "anti Inaba-LPS IgA and IgG titres in fecal pellets", "result": "effective adjuvant"}
    ]}
  ]
}
